From US8591908B2, “Immunogen for preparation of therapeutic vaccines or drugs for treatment of hepatitis B and the producing method and use thereof” (Institute of Immunology, PLA, priority 2002, dated 2013)
Ends that are not written are not given here. * marks the point of attachment. linolenoyl = CH3CH2CH=CHCH2CH=CH(CH2)CH=CH(CH2)7CO, CC/C=C\C/C=C\C/C=C\CCCCCCCC(=O)*; Palmitoyl = CCCCCCCCCCCCCCCC(=O)*; Lauroyl = CCCCCCCCCCCC(=O)*

What was measured:
[1] = tested on: PBMCs from acute hepatitis B patient in convalescent phase; assay: Proliferation of lymphocytes in PBMC of acute hepatitis B patient, 3H-TdR; type: cell-based, human; conditions: 0.1 μg, 1 μg and 10 μg/ml with IL-2
Description: Anticoagulant peripheral blood was collected aseptically from acute hepatitis B patient in convalescent phase, PBMCs were isolated by conventional Ficoll-Hypaque density gradient centrifugation and were cultured in RPMI1640 cultural media (containing 10% calf serum, 100 u/ml penicillin-streptomycin, L-glutamine) in vitro on 24-well cell culture plate at a concentration of 10^6/ml. Blank control group, test group, and Pre-S (2) control group were included. IL-2 (30 IU/ml) and test drug (0.1 μg/ml, 1 μg/ml, 10 μg/ml) were separately added into the wells. After the cells were cultured for 6 days, IL-2 and the test drug were added at the same doses to stimulate the cells again. Then 3H-TdR (1 uCi/ml) was added and further cultured for 18 hours. The cells were collected and tested by liquid scintillation.

[2] = tested on: T2 cells, E6 cells and HepG2.2.15 cells; assay: HBV-specific CTL from human PBMCs, 51Cr release cytotoxicity test; type: cell-based
Description: Human PBMCs were divided into groups and cultured in RPMI1640 culture media (containing 10% calf serum, and 100μ/ml penicillin-streptomycin) (10^6/ml, 24-well culture plates) in vitro for one day. After they recovered the original growth state, IL-2(30-IU/ml) and test drug (0.1 μg/ml, 1 μg/ml) were separately added. […] 3 days after the last stimulation, antigen-specific effective CTL cells were obtained. Cytotoxicity was tested by standard ^51Cr release tests and compared. Target cells (T2 cells and HepG2.2.1.5 cells pre-coated with peptide) were grown to a good state. 10 hours before the cells were used, 10 μg/ml test drug was added to the culture, and the cells were incubated. 10^6 Target cells were placed in 1 ml RPMI1640 media (containing 20% calf serum), and 100 μCi ^51Cr (NEN) was added for labelling in water-bath at 37° C. for 2 hours. The labelled target cells were washed with sterilized PBS buffer for 3 times under centrifugation (500 rpm/5 min), and were plated on 96-well V-bottom culture plates in an amount of 10^4 target cells/50 μl/well, each well was treated in triplicate. […] The minimum release value was 30% lower than the maximum release value. The formula for calculating ^51Cr release percentage was: [(CPMsample−CPMminimum release)/(CPMmaximum release−CMPminimum release)]×100%.

[3] = tested on: hepatitis B surface antigen (HBsAg) in HBV transgenic mice; assay: HBV transgenic mice: HBsAg in serum, ELISA; type: in vivo; conditions: 10th, 20th, 30th day after three immunizations, 10-1000 U/mouse
Description: (§1) The levels of cytokines such as IFN-γ, IL-4, etc. in supernatant were measured by the ELISA method, and the activity of the test drug (CH3(CH2)14COKSSQYIKANSKFIGITEAAASIVSPFIPLLGGGDPRVRGLYFPA) (SEQ ID NO:5) for inducing the differentiation of T cells into Th1/Th2 type was analyzed. […] The expression frequency of IFN-γ secreting cells in peripheral blood lymphocytes was measured by the ELI-SPOT method in said supernatant. […] On the 10th, 20th and 30th day after the end of the three immunizations, bloods were removed, serum isolated, and the contents of HBsAg and HBV-DNA in the serum were separately measured by the ELISA method and quantitative PCR method.

[4] = tested on: HBV-DNA transgenic mice; assay: HBV transgenic mice: IFN-γ secreting cells, ELI-SPOT; type: in vivo; conditions: 30th day after end of immunization
Description: as §1
The expression frequency of IFN-γ secreting cells in peripheral blood lymphocytes was measured by the ELI-SPOT method.

[5] = tested on: HBV DNA in HBV transgenic mice; assay: HBV transgenic mice: HBV DNA in serum, quantitative PCR; type: in vivo; conditions: 10th, 20th, 30th day after three immunizations, 10-1000 U/mouse
Description: as §1

[6] = tested on: HBV-DNA transgenic mice; assay: HBV transgenic mice: cytokines of spleen lymphocytes, ELISA (Th1/Th2); type: in vivo; conditions: 10, 100, 1000 U/mouse s.c., day 30; spleen lymphocytes restimulated with 10 ng/ml for 3 days
Description: as §1
Then supernatants were collected and the secretion levels of cytokines such as TNF-α, IFN-γ, IL-4, etc. in supernatants were measured by ELISA, and the activity of the test drug for inducing the conversion of Th1/Th2 type from T cells in subjects was analyzed.

[7] = tested on: Balb/c mice; assay: ELISPOT test of induced cytotoxicity in immunized mice; type: in vivo; conditions: IFN-γ ELISPOT of PBMC
From the text: Balb/c mice of 2-3 Months old (both male and female) were divided into 8 groups, and were immunized with the present compound at both postpede palmas once a week for three times at different doses: 0.001 nmol, 0.01 nmol, 0.1 nmol, 0.5 nmol, 1 nmol, 10 nmol, 20 nmol, and 40 nmol respectively. Bloods were taken postorbitally from mice under sterile conditions on the 6th, 12th, 18th and 24th day after the end of immunization respectively and were anticoagulatant-treated. PBMCs were isolated by Ficoll-Hypaque method, and were cultured in RPMI1640 culture media (containing 10% calf serum, and 100μ/ml penicillin-streptomycin) (10^6/ml, 96-well culture plate) in vitro for one day. After they returned to the original growth state, they were used as test cells. ELISPOT 96-well cell culture plate was pre-coated with IFN-γ coating antibody overnight, each well was treated in triplicate. The wells were blocked with RPMI1640 containing 5% calf serum at room temperature for 1 hour. After drying in air, test cells were added (5×10^4 cells/100 μl/well, containing RPMI1640 media, 10% calf serum, 100μ/ml myciline, and 1 μg/ml peptide), wherein the PBMC of mice immunized with melan A27-35 peptide were set as negative control. […] Then the plate was washed again and dried in air, the substrate was added for visualization and the number of spots was counted.

[8] = tested on: HLA-A2+ human PBMC; assay: FIG. 4: IFN-γ secreting CTL cells, ELISPOT; type: cell-based; conditions: 24 h after last stimulation
Description: (§2) FIG. 4 indicated the effect of inducing cytotoxicity. […] Three days after the last stimulation, antigen-specific effector CTL cells were obtained, and their cytotoxic activities were measured by the standard ^51Cr release test and compared. […] Twenty-four hours after the last stimulation to HLA-A2+ human PBMC, the effects of the test drug to induce the proliferating INF-γ secreting CTL cells in peripheral blood lymphocytes were measured in the ELISPOT method and compared.

[9] = tested on: 2215, E6 and T2 target cells; assay: FIG. 4: induced CTL cytotoxicity, 51Cr release test; type: cell-based, human; conditions: 10 ng test drug; E/T 12.5, 25, 50, 100
Description: as §2

[10] = tested on: PBMCs from hepatitis B patient; assay: Lymphocyte activation (Th1/Th2) of PBMCs from hepatitis B patient; type: cell-based, human; conditions: IL-4, IL-10, IFN-γ in culture supernatants, acute and chronic hepatitis
From the text: Acute and chronic hepatitis blank control groups, acute hepatitis+/test drug group and chronic hepatitis+/test drug group were included to test the Th1/Th2 activation by Endogen kit or EELISPOT method.

Substance: CH3(CH2)14COKSSQYIKANSKFIGITEAAALLCLIFLLVGGGDPRVRGLYFPA (Palmitoyl-KSSQYIKANSKFIGITEAAALLCLIFLLVGGGDPRVRGLYFPA) [SEQ ID NO:51]
- proliferation of PBMCs [1]: stimulated the proliferation of PBMCs from acute hepatitis B patient in convalescent phase in a manner of dose dependence

Substance: CH3CH2CH═CHCH2CH═CH(CH2)CH═CH(CH2)7COFLPSDFFPSVAAADPRVRGLYFPA (linolenoyl-FLPSDFFPSVAAADPRVRGLYFPA) [SEQ ID NO:54]
- specific killing of target cells [2]: specifically kill peptide pre-coated T2 cells, E cells and HepG2.2.15 cells
- target cell-specific lysis rate ([2]; PBMCs of healthy human): up to 62.8%

Substance: CH3(CH2)14COKSSQYIKANSKFIGITEAAASIVSPFIPLLGGGDPRVRGLYFPA (Palmitoyl-KSSQYIKANSKFIGITEAAASIVSPFIPLLGGGDPRVRGLYFPA) [SEQ ID NO:5]
- HBsAg in the serum [3]: obvious decrease
- expression frequency of IFN-γ secreting cells in peripheral blood lymphocytes ([4]; 10-1000 U/mouse): increased with the increase of immunogen dose
- highest expression frequency of IFN-γ secreting cells ([4]; IFN-α2b at 15000 U/mouse): 3660 IFN-γ secreting cells/10^6 PBMC
- HBV-DNA in the serum (copy number, replication level) [5]: obvious decrease
- IL-4 secretion [6]: did not exhibit an obvious dose-effect dependence relation
- secretion of IFN-γ [6]: strong secretion of IFN-γ

Substance: CH3(CH2)14COKSSPADREAAAFLPSDFFPSVGGGDPRVRGLYFPA (Palmitoyl-KSSPADREAAAFLPSDFFPSVGGGDPRVRGLYFPA) [SEQ ID NO:56]
- minimum effective dose [7]: 0.01 nmol

Substance: CH3(CH2)7CH═CH(CH2)—CO, CH3CH2CH═CHCH2CH═CH(CH2)7CO7KSSQYIKANSKFIGITEGGGDPRVRGLYFPA (not fully specified (N-terminus); printed as CH3(CH2)7CH═CH(CH2)—CO, CH3CH2CH═CHCH2CH═CH(CH2)7CO7KSSQYIKANSKFIGITEGGGDPRVRGLYFPA) [SEQ ID NO:3]
- proliferation of IFN-γ secreting cells [8]: induce the proliferation of IFN-γ secreting cells in human PBMC in a notable dose-effect dependence relation
- CTL effect, lysis of target cells [9]: induce the CTL effect in human PBMC, and specifically lyzed and destroyed target cells

Substance: CH3(CH2)10COKSSPADREGGGSLNFLGGTTVSSSDPRVRGLYFPA (Lauroyl-KSSPADREGGGSLNFLGGTTVSSSDPRVRGLYFPA) [SEQ ID NO:50]
- conversion of T-lymphocytes into Th1/Th2 type [10]: induce the conversion of T-lymphocytes into both Th1 and Th2 types, with the conversion into Th1 type the most obvious
